Experimental data: ChEMBL document CHEMBL4420076, “Amylin and calcitonin receptor agonist” (2017)
pEC50, pIC50: −log10 of the molar value. Peptide text beside a SMILES is read from it. * marks the point of attachment. C18 diacid = O=C(O)CCCCCCCCCCCCCCCCC(=O)*

Key:
[1] = Solubility in 100 mM bistrispropane buffer at pH 8.0 incubated for 18 hrs by UPLC analysis; type: physicochemical
[2] = Solubility in 100 mM bistrispropane buffer at pH 7.0 incubated for 18 hrs by UPLC analysis; type: physicochemical
[3] = Solubility in 100 mM bistrispropane buffer at pH 6.0 incubated for 18 hrs by UPLC analysis; type: physicochemical
[4] = Solubility in 100 mM bistrispropane buffer at pH 6.5 incubated for 18 hrs by UPLC analysis; type: physicochemical
[5] = Solubility in 100 mM glycylglycine buffer at pH 3.0 incubated for 18 hrs by UPLC analysis; type: physicochemical
[6] = biological target: T1, Amylin receptor AMY3; CALCR/RAMP3 (Homo sapiens, UniProt O60896+P30988); assay: Displacement of [125I]-labeled rat amylin from human amylin receptor expressed in BHK tkts13 whole cells co-expressing RAMP3 incubated for 60 mins by scintillation proximity assay; type: cell-based
T1 sequence (P30988 whole entry): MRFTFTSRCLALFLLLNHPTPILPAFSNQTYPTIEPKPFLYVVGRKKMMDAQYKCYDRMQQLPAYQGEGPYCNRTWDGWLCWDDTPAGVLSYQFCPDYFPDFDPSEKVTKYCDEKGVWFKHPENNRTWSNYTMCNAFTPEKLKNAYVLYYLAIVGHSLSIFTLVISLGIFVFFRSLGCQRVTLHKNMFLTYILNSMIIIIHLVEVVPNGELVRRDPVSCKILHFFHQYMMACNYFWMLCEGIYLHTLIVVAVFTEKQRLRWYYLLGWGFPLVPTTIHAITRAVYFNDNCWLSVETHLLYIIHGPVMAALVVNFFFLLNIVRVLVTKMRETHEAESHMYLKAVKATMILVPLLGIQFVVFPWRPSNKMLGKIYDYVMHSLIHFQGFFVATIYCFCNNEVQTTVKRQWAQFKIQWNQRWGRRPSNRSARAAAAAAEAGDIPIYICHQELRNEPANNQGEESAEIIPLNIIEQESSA
T1 sequence (O60896 whole entry): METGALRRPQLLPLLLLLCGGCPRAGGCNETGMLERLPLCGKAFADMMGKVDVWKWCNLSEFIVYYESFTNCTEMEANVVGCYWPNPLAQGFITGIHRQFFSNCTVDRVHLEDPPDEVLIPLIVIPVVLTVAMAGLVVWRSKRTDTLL

[7] = Solubility in 100 mM bistrispropane buffer at pH 7.5 incubated for 18 hrs by UPLC analysis; type: physicochemical
[8] = biological target: T2, Calcitonin receptor (Homo sapiens, UniProt P30988); assay: Agonist activity at human calcitonin receptor expressed in BHK570 cells assessed as increase in intracellular cAMP concentration incubated for 3 hrs in absence of albumin by CRE luciferase reporter gene assay; type: functional, cell-based
T2 sequence (P30988 whole entry): T1 sequence (P30988 whole entry)

[9] = biological target: T1, Amylin receptor AMY3; CALCR/RAMP3; assay: Agonist activity at human amylin receptor expressed in BHK570 cells co-expressing RAMP3 assessed as increase in intracellular cAMP concentration incubated for 3 hrs in absence of albumin by CRE luciferase reporter gene assay; type: functional, cell-based
[10] = Solubility in 100 mM glycylglycine buffer at pH 5.0 incubated for 18 hrs by UPLC analysis; type: physicochemical
[11] = Solubility in 100 mM glycylglycine buffer at pH 4.0 incubated for 18 hrs by UPLC analysis; type: physicochemical

CC(C)C[C@H](NC(=O)[C@H](C)NC(=O)[C@H](C)NC(=O)[C@@H](NC(=O)[C@H](CO)NC(=O)[C@H](Cc1cnc[nH]1)NC(=O)[C@H](CCC(=O)O)NC(=O)[C@H](CO)NC(=O)[C@H](C)NC(=O)[C@H](CCC(=O)O)NC(=O)CCCCCCCCCCCCCCCCC(=O)O)[C@@H](C)O)C(=O)NCC(=O)N[C@@H](CCCNC(=N)N)C(=O)N[C@@H](CC(C)C)C(=O)N[C@@H](CO)C(=O)N[C@@H](C)C(=O)N[C@@H](CCC(=O)O)C(=O)N[C@@H](CC(C)C)C(=O)N[C@@H](Cc1cnc[nH]1)C(=O)N[C@@H](CCC(=O)O)C(=O)N[C@@H](CC(C)C)C(=O)N[C@@H](C)C(=O)N[C@H](C(=O)N[C@@H](CC(C)C)C(=O)N1CCC[C@H]1C(=O)N[C@@H](CCCNC(=N)N)C(=O)N[C@H](C(=O)N[C@@H](CCC(=O)O)C(=O)N[C@H](C(=O)NCC(=O)N1CCC[C@H]1C(=O)N[C@@H](CCC(=O)O)C(=O)N[C@@H](CO)C(=O)N1CCC[C@H]1C(N)=O)[C@@H](C)O)[C@@H](C)O)[C@@H](C)O ({C18 diacid}-EASEHSTAALGRLSAELHELATLPRTETGPESP-NH2)
solubility at 18 h [1]: ≥ 200 µM | solubility at 18 h [2]: ≥ 200 µM | solubility at 18 h [3]: ≥ 200 µM | solubility at 18 h [4]: ≥ 200 µM | solubility at 18 h [5]: ≥ 200 µM | pIC50 [6]: 9.08 | solubility at 18 h [7]: ≥ 200 µM | pEC50 [8]: 11.22 | pEC50 [9]: 11.10 | solubility at 18 h [10]: ≥ 200 µM | solubility at 18 h [11]: ≥ 200 µM

CC(C)C[C@H](NC(=O)[C@H](C)NC(=O)[C@H](C)NC(=O)[C@@H](NC(=O)[C@H](Cc1cnc[nH]1)NC(=O)[C@H](CC(C)C)NC(=O)[C@H](CCC(=O)O)NC(=O)[C@H](CO)NC(=O)[C@H](C)NC(=O)[C@H](CCC(=O)O)NC(=O)CCCCCCCCCCCCCCCCC(=O)O)[C@@H](C)O)C(=O)NCC(=O)N[C@@H](CCCNC(=N)N)C(=O)N[C@@H](CC(C)C)C(=O)N[C@@H](CO)C(=O)N[C@@H](C)C(=O)N[C@@H](CCC(=O)O)C(=O)N[C@@H](CC(C)C)C(=O)N[C@@H](Cc1cnc[nH]1)C(=O)N[C@@H](CCC(=O)O)C(=O)N[C@@H](CC(C)C)C(=O)N[C@@H](C)C(=O)N[C@H](C(=O)N[C@@H](CC(C)C)C(=O)N1CCC[C@H]1C(=O)N[C@@H](CCCNC(=N)N)C(=O)N[C@H](C(=O)N[C@@H](CCC(=O)O)C(=O)N[C@H](C(=O)NCC(=O)N1CCC[C@H]1C(=O)N[C@@H](CCC(=O)O)C(=O)N[C@@H](CO)C(=O)N1CCC[C@H]1C(N)=O)[C@@H](C)O)[C@@H](C)O)[C@@H](C)O ({C18 diacid}-EASELHTAALGRLSAELHELATLPRTETGPESP-NH2)
solubility at 18 h [1]: ≥ 200 µM | solubility at 18 h [2]: ≥ 200 µM | solubility at 18 h [3]: ≥ 200 µM | solubility at 18 h [4]: ≥ 200 µM | solubility at 18 h [5]: ≥ 200 µM | pIC50 [6]: 8.88 | solubility at 18 h [7]: ≥ 200 µM | pEC50 [8]: 11.05 | pEC50 [9]: 10.82 | solubility at 18 h [10]: ≥ 200 µM | solubility at 18 h [11]: ≥ 200 µM

CC[C@H](C)[C@H](NC(=O)[C@H](CCC(=O)O)NC(=O)[C@H](C)NC(=O)[C@H](CO)NC(=O)[C@H](CC(C)C)NC(=O)[C@H](CCCNC(=N)N)NC(=O)CNC(=O)[C@H](CC(C)C)NC(=O)[C@H](C)NC(=O)[C@H](C)NC(=O)[C@@H](NC(=O)[C@H](CO)NC(=O)[C@H](CC(C)C)NC(=O)[C@H](CCC(=O)O)NC(=O)[C@H](CO)NC(=O)[C@H](C)NC(=O)[C@H](CCC(=O)O)NC(=O)CCCCCCCCCCCCCCCCC(=O)O)[C@@H](C)O)C(=O)N[C@@H](Cc1cnc[nH]1)C(=O)N[C@@H](CCC(=O)O)C(=O)N[C@@H](CC(C)C)C(=O)N[C@@H](C)C(=O)N[C@H](C(=O)N[C@@H](CC(C)C)C(=O)N1CCC[C@H]1C(=O)N[C@@H](CCCNC(=N)N)C(=O)N[C@H](C(=O)N[C@@H](CCC(=O)O)C(=O)N[C@H](C(=O)NCC(=O)N1CCC[C@H]1C(=O)N[C@@H](CCC(=O)O)C(=O)N[C@@H](CO)C(=O)N1CCC[C@H]1C(N)=O)[C@@H](C)O)[C@@H](C)O)[C@@H](C)O ({C18 diacid}-EASELSTAALGRLSAEIHELATLPRTETGPESP-NH2)
solubility at 18 h [1]: ≥ 200 µM | solubility at 18 h [2]: ≥ 200 µM | solubility at 18 h [3]: ≥ 200 µM | solubility at 18 h [4]: ≥ 200 µM | solubility at 18 h [5]: ≥ 200 µM | pIC50 [6]: 8.83 | solubility at 18 h [7]: ≥ 200 µM | pEC50 [8]: 11.30 | pEC50 [9]: 11.15 | solubility at 18 h [10]: ≥ 200 µM | solubility at 18 h [11]: ≥ 200 µM

CC[C@H](C)[C@H](NC(=O)[C@H](CCC(=O)O)NC(=O)[C@H](Cc1cnc[nH]1)NC(=O)[C@H](CC(C)C)NC(=O)[C@H](CCC(=O)O)NC(=O)[C@H](C)NC(=O)[C@H](CO)NC(=O)[C@H](CC(C)C)NC(=O)[C@H](CCCNC(=N)N)NC(=O)CNC(=O)[C@H](CC(C)C)NC(=O)[C@H](C)NC(=O)[C@H](C)NC(=O)[C@@H](NC(=O)[C@H](CO)NC(=O)[C@H](CC(C)C)NC(=O)[C@H](CCC(=O)O)NC(=O)[C@H](CO)NC(=O)[C@H](C)NC(=O)[C@H](CCC(=O)O)NC(=O)CCCCCCCCCCCCCCCCC(=O)O)[C@@H](C)O)C(=O)N[C@@H](C)C(=O)N[C@H](C(=O)N[C@@H](CC(C)C)C(=O)N1CCC[C@H]1C(=O)N[C@@H](CCCNC(=N)N)C(=O)N[C@H](C(=O)N[C@@H](CCC(=O)O)C(=O)N[C@H](C(=O)NCC(=O)N1CCC[C@H]1C(=O)N[C@@H](CCC(=O)O)C(=O)N[C@@H](CO)C(=O)N1CCC[C@H]1C(N)=O)[C@@H](C)O)[C@@H](C)O)[C@@H](C)O ({C18 diacid}-EASELSTAALGRLSAELHEIATLPRTETGPESP-NH2)
solubility at 18 h [1]: ≥ 200 µM | solubility at 18 h [2]: ≥ 200 µM | solubility at 18 h [3]: ≥ 200 µM | solubility at 18 h [4]: ≥ 200 µM | solubility at 18 h [5]: ≥ 200 µM | pIC50 [6]: 9.29 | solubility at 18 h [7]: ≥ 200 µM | pEC50 [8]: 11.30 | pEC50 [9]: 11.22 | solubility at 18 h [10]: ≥ 200 µM | solubility at 18 h [11]: ≥ 200 µM

CC(C)C[C@H](NC(=O)[C@H](CCC(=O)O)NC(=O)[C@H](Cc1cnc[nH]1)NC(=O)[C@H](CC(C)C)NC(=O)[C@H](CCC(=O)O)NC(=O)[C@H](C)NC(=O)[C@H](CO)NC(=O)[C@H](CC(C)C)NC(=O)[C@H](CCCNC(=N)N)NC(=O)CNC(=O)[C@H](CC(C)C)NC(=O)[C@@H](NC(=O)[C@H](C)NC(=O)[C@@H](NC(=O)[C@H](CO)NC(=O)[C@H](CC(C)C)NC(=O)[C@H](CCC(=O)O)NC(=O)[C@H](CO)NC(=O)[C@H](C)NC(=O)[C@H](CCC(=O)O)NC(=O)CCCCCCCCCCCCCCCCC(=O)O)[C@@H](C)O)C(C)C)C(=O)N[C@@H](C)C(=O)N[C@H](C(=O)N[C@@H](CC(C)C)C(=O)N1CCC[C@H]1C(=O)N[C@@H](CCCNC(=N)N)C(=O)N[C@H](C(=O)N[C@@H](CCC(=O)O)C(=O)N1CCC[C@H]1C(=O)NCC(=O)N1CCC[C@H]1C(=O)N[C@@H](CCC(=O)O)C(=O)N[C@@H](CO)C(=O)N1CCC[C@H]1C(N)=O)[C@@H](C)O)[C@@H](C)O ({C18 diacid}-EASELSTAVLGRLSAELHELATLPRTEPGPESP-NH2)
solubility at 18 h [1]: ≥ 200 µM | solubility at 18 h [2]: ≥ 200 µM | solubility at 18 h [3]: ≥ 200 µM | solubility at 18 h [4]: ≥ 200 µM | solubility at 18 h [5]: ≥ 200 µM | pIC50 [6]: 8.05 | solubility at 18 h [7]: ≥ 200 µM | pEC50 [8]: 10.92 | pEC50 [9]: 10.51 | solubility at 18 h [10]: ≥ 200 µM | solubility at 18 h [11]: ≥ 200 µM

CC(C)C[C@H](NC(=O)[C@H](C)NC(=O)[C@H](CC(C)C)NC(=O)[C@@H](NC(=O)[C@H](CO)NC(=O)[C@H](CC(C)C)NC(=O)[C@H](CCC(=O)O)NC(=O)[C@H](CO)NC(=O)[C@H](C)NC(=O)[C@H](CCC(=O)O)NC(=O)CCCCCCCCCCCCCCCCC(=O)O)[C@@H](C)O)C(=O)NCC(=O)N[C@@H](CCCNC(=N)N)C(=O)N[C@@H](CC(C)C)C(=O)N[C@@H](CO)C(=O)N[C@@H](C)C(=O)N[C@@H](CCC(=O)O)C(=O)N[C@@H](CC(C)C)C(=O)N[C@@H](Cc1cnc[nH]1)C(=O)N[C@@H](CCC(=O)O)C(=O)N[C@@H](CC(C)C)C(=O)N[C@@H](C)C(=O)N[C@H](C(=O)N[C@@H](CC(C)C)C(=O)N1CCC[C@H]1C(=O)N[C@@H](CCCNC(=N)N)C(=O)N[C@H](C(=O)N[C@@H](CCC(=O)O)C(=O)N[C@H](C(=O)NCC(=O)N1CCC[C@H]1C(=O)N[C@@H](CCC(=O)O)C(=O)N[C@@H](CO)C(=O)N1CCC[C@H]1C(N)=O)[C@@H](C)O)[C@@H](C)O)[C@@H](C)O ({C18 diacid}-EASELSTLALGRLSAELHELATLPRTETGPESP-NH2)
solubility at 18 h [1]: ≥ 200 µM | solubility at 18 h [2]: ≥ 200 µM | solubility at 18 h [3]: ≥ 200 µM | solubility at 18 h [4]: ≥ 200 µM | solubility at 18 h [5]: ≥ 200 µM | pIC50 [6]: 9.56 | solubility at 18 h [7]: ≥ 200 µM | pEC50 [8]: 11.15 | pEC50 [9]: 11.05 | solubility at 18 h [10]: ≥ 200 µM | solubility at 18 h [11]: ≥ 200 µM
